≈ marks a conversion by molar mass, not a printed value.
Columns and labels:
[1] = test system: INH-resistant Mtb clinical isolate with inhA promoter mutation; format: cell-based, Mycobacterium tuberculosis
[2] = test system: INH-resistant Mtb clinical isolate with katG S315T mutation; format: cell-based, Mycobacterium tuberculosis

## NC(=O)C1CCN(c2ccc(C=NNC(=O)c3ccncc3)cc2)CC1 [IP13, 1-(4-((2-Isonicotinoylhydrazono)methyl)phenyl)piperidine-4-carboxamide]
[1]
  MIC: 1.56 µM (≈ 0.548 µg/mL)
[2]
  MIC: 50 µM (≈ 17.6 µg/mL)

## CN1CCN(c2ccc(C=NNC(=O)c3ccncc3)cc2)CC1 [IP10, N′-(4-(4-Methylpiperazin-1-yl)benzylidene)isonicotinohydrazide]
[1]
  MIC: 1.56 µM (≈ 0.505 µg/mL)
[2]
  MIC: 25 µM (≈ 8.09 µg/mL)

## COc1ccc(N2CCN(c3ccc(C=NNC(=O)c4ccncc4)cc3)CC2)cc1 [IP7, N′-(4-(4-(4-Methoxyphenyl)piperazin-1-yl)benzylidene)isonicotinohydrazide]
[1]
  MIC: 25 µM (≈ 10.4 µg/mL)
[2]
  MIC: 100 µM (≈ 41.5 µg/mL)

## O=C(NN=Cc1ccc(N2CCN(c3ccccn3)CC2)cc1)c1ccncc1 [IP8, N′-(4-(4-(Pyridin-2-yl)piperazin-1-yl)benzylidene)isonicotinohydrazide]
[1]
  MIC: 1.56 µM (≈ 0.603 µg/mL)
[2]
  MIC: 50 µM (≈ 19.3 µg/mL)

## O=C(NN=Cc1ccc(N2CCN(C3CCCCC3)CC2)cc1)c1ccncc1 [IP11, N′-(4-(4-Cyclohexylpiperazin-1-yl)benzylidene)isonicotinohydrazide]
[1]
  MIC: 0.78 µM (≈ 0.305 µg/mL)
[2]
  MIC: 12.5 µM (≈ 4.89 µg/mL)

## CCOC(=O)C1CCN(c2ccc(C=NNC(=O)c3ccncc3)cc2)CC1 [IP12, Ethyl 1-(4-((2-isonicotinoylhydrazono)methyl)phenyl)piperidine-4-carboxylate]
[1]
  MIC: 1.56 µM (≈ 0.593 µg/mL)
[2]
  MIC: 25 µM (≈ 9.51 µg/mL)

## O=C(NN=Cc1ccc(N2CCN(c3ncccn3)CC2)cc1)c1ccncc1 [IP9, N′-(4-(4-(Pyrimidin-2-yl)piperazin-1-yl)benzylidene)isonicotinohydrazide]
[1]
  MIC: 3.12 µM (≈ 1.21 µg/mL)
[2]
  MIC: 25 µM (≈ 9.69 µg/mL)

## NNC(=O)c1ccncc1 [INH, isonicotinic acid hydrazide, reference compound]
[1]
  MIC: 1.56 µM (≈ 0.214 µg/mL)
[2]
  MIC: 6.25 µM (≈ 0.857 µg/mL)

Source: publication PMC12467433, “Isoniazid-Derived Hydrazones Featuring Piperazine/Piperidine Rings: Design, Synthesis, and Investigation of Antitubercular Activity” (Biomolecules, 2025)
